In patent publication EP4793271A1, “NEUROPROTECTIVE AGENT” (National Center of Neurology and Psychiatry, priority 2023, dated 2025) one finds minimal effective concentration data, which are given here for three molecules.

This assay deals with primary cultured cells of mouse fetus-derived dorsal root ganglia (DRGs). As to the kind of experiment: Suppression of axonal degeneration after axotomy in DRG explant culture. Type of assay: cell-based. The note with it: Mus musculus; minimum concentration at which axonal degeneration was suppressed (DI 0.3 or less); 24 hours after axotomy; read-out: Evaluation on protection against degeneration. The method in brief:
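Embryonic ICR mouse DRG explants were cultured 7–8 days in nicotinamide-free neuronal medium with NGF, then axotomized by removing the cell bodies. Compound (100 pM–10 µM final, 0.1% DMSO) was added within 30 min, and neurites were imaged 24 h later. The result is the lowest concentration giving degeneration index ≤0.3.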
Consider `O=C(NCCCOCCOCCCNC(=O)c1cccnc1)c1cccnc1` [compound 35], for which the minimal effective concentration is at most 0.01 µM.
Take `O=C(NCc1ccc(NC(=O)c2ccccc2)nc1)c1cccnc1` [compound 105]: the minimal effective concentration was at most 0.01 µM.
Regarding `CC(C)(C)C(=O)Nc1ccc(CNC(=O)c2cccnc2)cn1` [compound 76], the minimal effective concentration was at most 0.01 µM.
